Measurements published in patent US20160194359A1, “CELL-REACTIVE, LONG-ACTING, OR TARGETED COMPSTATIN ANALOGS AND RELATED COMPOSITIONS AND METHODS” (APELLIS PHARMACEUTICALS, INC., priority 2012, published 2016).
Blank lines part the entries; values can stand above or below the molecule they belong to. Non-standard residues stand in square brackets, D forms with d. Trp(6-F) = N[C@@H](Cc1c[nH]c2cc(F)ccc12)C(=O)O; Bpa = N[C@@H](Cc1ccc(C(=O)c2ccccc2)cc1)C(=O)O; 1Nal = N[C@@H](Cc1cccc2ccccc12)C(=O)O; 2Nal = N[C@@H](Cc1ccc2ccccc2c1)C(=O)O

Assays:
[1] = previous study of CA28 administered intravenously (historical data); assay type: in vivo, Cynomolgus monkeys; conditions: for Serum concentration: CA28 (IV) 200 mg/kg, unit not in table
From the text: Average values and standard deviations are readily calculated. There was notable consistency between animals.
The data points represent all PEGylated CA28 compound detected.

complement activation = conditions: relative to compstatin amidated at the C-terminus; published data; cited from earlier work
[2] = molecular target: T1, complement component C3 (human) (human, UniProt P01024 23-1663); experiment: cell-based or functional assay
[3] = molecular target: T1, complement component C3 (human); experiment: cell-based or functional assay; remark: listed apart in the source
[4] = molecular target: T1, complement component C3 (human); experiment: cell-based or functional assay; remark: listed apart in the source

- Serum concentration ([1]; time 0.02 days, historical data): 34
- Serum concentration ([1]; time 0.042 days, historical data): 17
- Serum concentration ([1]; time 0.167 days, historical data): 9
- Serum concentration ([1]; time 0.333 days, historical data): 5
- Serum concentration ([1]; time 1 day, historical data): 1.5
- level at 4.008 h ([1]; cynomolgus monkey, serum, iv, 200 mg/kg, read-out: Serum Concentration): 9000 ng/mL
- level at 0.48 h ([1]; cynomolgus monkey, serum, IV 200 mg/kg, time 0.02 days, historical data, HPLC, read-out: Serum Concentration): 34000 ng/mL
- level at 1.008 h ([1]; cynomolgus monkey, serum, IV 200 mg/kg, time 0.042 days, historical data, HPLC, read-out: Serum Concentration): 17000 ng/mL
- level at 7.992 h ([1]; cynomolgus monkey, serum, IV 200 mg/kg, time 0.333 days, historical data, HPLC, read-out: Serum Concentration): 5000 ng/mL
- level at 24 h ([1]; cynomolgus monkey, serum, IV 200 mg/kg, time 1 day, historical data, HPLC, read-out: Serum Concentration): 1500 ng/mL
Molecule: CC[C@H](C)[C@H](NC(C)=O)C(=O)N[C@H]1CSSC[C@@H](C(=O)N[C@H](C(N)=O)[C@@H](C)O)NC(=O)[C@H](CCCNC(=N)N)NC(=O)[C@H](Cc2cnc[nH]2)NC(=O)[C@H](C)NC(=O)CNC(=O)[C@H](Cc2c[nH]c3ccccc23)NC(=O)[C@H](CC(=O)O)NC(=O)[C@H](CCC(N)=O)NC(=O)[C@H](Cc2cn(C)c3ccccc23)NC(=O)[C@H](C(C)C)NC1=O [CA28]

Molecule: Ac-ICV(1-Nal)QDWGAHRCT-COOH (Ac-ICV[1Nal]QDWGAHRCT-OH; cysteine pairing not given here) [Ac V4(1-Nal)/H9A-OH]
- Activity over compstatin (complement activation): 30 × more

Molecule: Ac-ICV(2-IgI)QDWGAHRCT-CONH2 (Ac-ICV[2‑IgI]QDWGAHRCT-NH2; cysteine pairing not given here) [Ac-V42IgI/H9A]
- Activity over compstatin (complement activation): 39 × more

Molecule: Ac-ICV(2-IgI)QDWGAHRCT-COOH (Ac-ICV[2‑IgI]QDWGAHRCT-OH; cysteine pairing not given here) [Ac-V42IgI/H9A-OH]
- Activity over compstatin (complement activation): 37 × more

Molecule: Ac-ICV(2-Nal)QDWGAHRCT-CONH2 (Ac-ICV[2Nal]QDWGAHRCT-NH2; cysteine pairing not given here) [Ac-V4(2-Nal)/H9A]
- Activity over compstatin (complement activation): 99 × more

Molecule: Ac-ICV(2-Nal)QDWGAHRCT-COOH (Ac-ICV[2Nal]QDWGAHRCT-OH; cysteine pairing not given here) [Ac V4(2-Nal)/H9A-OH]
- Activity over compstatin (complement activation): 38 × more

Molecule: Ac-ICV(5-methyl-W)QDWGAHRCT-CONH2 [Ac-V4(5-MeW)/H9A]
- Activity over compstatin (complement activation): 67 × more

Molecule: Ac-ICV(5fW)QDWGAHRCT-CONH2 [Ac-V4(5fW)/H9A]
- Activity over compstatin (complement activation): 31 × more

Molecule: Ac-ICV(Bpa)QDWGAHRCT-CONH2 (Ac-ICV[Bpa]QDWGAHRCT-NH2; not fully specified (bridges); printed as Ac-ICV(Bpa)QDWGAHRCT-CONH2; cysteine pairing not given here) [Ac-V4(Bpa)/H9A]
- Activity over compstatin (complement activation): 86 × more

Molecule: Ac-ICV(Bpa)QDWGAHRCT-COOH (Ac-ICV[Bpa]QDWGAHRCT-OH; not fully specified (bridges); printed as Ac-ICV(Bpa)QDWGAHRCT-COOH; cysteine pairing not given here) [Ac-V4(Bpa)/H9A-OH]
- Activity over compstatin (complement activation): 49 × more

Molecule: Ac-ICVDhtQDWGAHRCT-COOH [Ac-V4Dht/H9A-OH]
- Activity over compstatin (complement activation): 5 × more

Molecule: Ac-ICVVQDWGHHRCT-CONH2 [Ac-compstatin]
- Activity over compstatin (complement activation): 3 × more

Molecule: Ac-ICVWQD(5fW)GAHRCT-CONH2 [Ac-V4W/W7(5fW)/H9A]
- Activity over compstatin (complement activation): 121 × more

Molecule: Ac-ICVWQDWGAHRCT-CONH2 [Ac-V4W/H9A]
- Activity over compstatin (complement activation): 45 × more

Molecule: Ac-ICVWQDWGAHRCdT-COOH [Ac-V4W/H9A/T13dT-OH]
- Activity over compstatin (complement activation): 55 × more

Molecule: Ac-ICVYQDWGAHRCT-CONH2 [Ac-V4Y/H9A]
- Activity over compstatin (complement activation): 14 × more

Molecule: H-GICV(6fW)QD(6fW)GAHRCTN-COON (H-GICV[Trp(6-F)]QD[Trp(6-F)]GAHRCTN-OH; not fully specified (bridges); cysteine pairing not given here) [+G/V4(6fW)/W7(6fW)H9A+N-OH]
- Activity over compstatin (complement activation): 126 × more

- IC50 (read off the curve); classical pathway complement activation (C3b deposition ELISA, human plasma) [2]: ~700 nM
- IC50, classical complement inhibition assay (C3b deposition ELISA) [3]: 1290 nM
B1: CA28-AEEAc-Lys-(PEG40k) (peptide)
peptide: ICVWQDWGAHRCTK
modifications: N-terminal acetyl; 1-methyl-tryptophan at position 4; disulfide Cys2-Cys12; AEEAc linker after Thr13; linear 40 kD mPEG (NOF ME-400GS, glutaryl) on the Lys side chain; C-terminal amide

- % Parent in Q1 (Type III cells with high C3d deposition); modified Ham's assay, 50 ug/ml [4]: 0.01%
- % Parent in Q2 (Type I and II cells with high C3d deposition); modified Ham's assay, 50 ug/ml [4]: 0.01%
- % Parent in Q3 (Type III cells without significant C3d deposition); modified Ham's assay, 50 ug/ml [4]: 61.5%
- % Parent in Q4 (Type I and II cells without significant C3d deposition); modified Ham's assay, 50 ug/ml [4]: 38.5%
B2: CA28-2GS-BF (bifunctionalized PEG-based compstatin analog, GS type) (peptide)
peptide: ICVWQDWGAHRCTK
modifications: N-terminal acetyl; 1-methyl-tryptophan at position 4; disulfide Cys2-Cys12; AEEAc linker after Thr13; Lys side chain coupled to one end of a bifunctional linear 40 kD PEG (glutaryl, GS type); C-terminal amide

- IC50 (read off the curve); classical pathway complement activation (C3b deposition ELISA, human plasma) [2]: ~700 nM
B3: CA28-AEEAc-Lys(mPEG40K-hexanoyl) (peptide)
peptide: ICVWQDWGAHRCTK
modifications: N-terminal acetyl; 1-methyl-tryptophan at position 4; disulfide Cys2-Cys12; AEEAc linker after Thr13; linear 40 kD mPEG (NOF ME-400HS, hexanoyl) on the Lys side chain; C-terminal amide

- IC50 (read off the curve); classical pathway complement activation (C3b deposition ELISA, human plasma) [2]: ~700 nM
B4: CA28-AEEAc-Lys(mPEG40K-carbonyl) (peptide)
peptide: ICVWQDWGAHRCTK
modifications: not fully specified; N-terminal acetyl; 1-methyl-tryptophan at position 4; disulfide Cys2-Cys12; AEEAc linker after Thr13; linear 40 kD mPEG (NOF ME-400TS, carbonyl) on the Lys side chain; C-terminal amide

- IC50, classical complement inhibition assay (C3b deposition ELISA) [3]: 1260 nM
B5: CA28-AEEAc-Lys-(PEG30k) (peptide)
peptide: ICVWQDWGAHRCTK
modifications: N-terminal acetyl; 1-methyl-tryptophan at position 4; disulfide Cys2-Cys12; AEEAc (8-amino-3,6-dioxaoctanoyl) linker after Thr13; linear 30 kD mPEG (NOF ME-300GS) on the Lys side chain; C-terminal amide

- IC50 (read off the curve); classical pathway complement activation (C3b deposition ELISA, human plasma) [2]: ~700 nM
B6: CA28-AEEAc-Lys(mPEG40K-succinyl) (peptide)
peptide: ICVWQDWGAHRCTK
modifications: N-terminal acetyl; 1-methyl-tryptophan at position 4; disulfide Cys2-Cys12; AEEAc linker after Thr13; linear 40 kD mPEG (NOF ME-400CS, succinyl) on the Lys side chain; C-terminal amide
